Several values for one entry are separate records, joined by “and”; a condition that tells them apart may be missing. Equal entries are not always repeated.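 These data come from cells grown in 96-well plates and exposed to compound for 48 hours at five concentrations. GI50 is the concentration that inhibits growth by half. TGI: total growth inhibition.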
Columns and labels:
Assay in all cases: NCI tumour cell line growth inhibition, 48 h
BT-549 breast = test system: BT-549 breast
ACHN renal = test system: ACHN renal
NCI-H23 lung = test system: NCI-H23 lung
KM20L2 colon = test system: KM20L2 colon
SK-MEL-5 melanoma = test system: SK-MEL-5 melanoma
DMS 114 small cell lung = test system: DMS 114 small cell lung
LXFL 529 NSCLC = test system: LXFL 529 NSCLC
NCI-H460 lung = test system: NCI-H460 lung
PC-3 prostate = test system: PC-3 prostate
OVCAR-4 ovarian = test system: OVCAR-4 ovarian
TK-10 renal = test system: TK-10 renal
M19-MEL melanoma = test system: M19-MEL melanoma

Row | Structure (SMILES) | TGI (BT-549 breast) [µM] | TGI (ACHN renal) [µM] | TGI (NCI-H23 lung) | TGI (KM20L2 colon) [µM] | TGI (SK-MEL-5 melanoma) [µM] | TGI (DMS 114 small cell lung) [µM] | TGI (LXFL 529 NSCLC) [µM] | TGI (NCI-H460 lung) | TGI (PC-3 prostate) [µM] | TGI (OVCAR-4 ovarian) [µM] | TGI (TK-10 renal) | TGI (M19-MEL melanoma) [µM] | GI50 (OVCAR-4 ovarian) [µM]
1 | O=C1/C(=C/c2ccc(Cl)cc2)CCC1CN1CCOCC1 (configuration not stated) | 26 | 24.8 | 20.9 µM | 29.1 | 26.1 | 70.2 | 6.88 | 39.2 µM | 18.5 | 34.1 | 18.3 µM |  | 
2 | CN(C)C(=S)/N=c1\ss/c(=N\C(=S)N(C)C)n1Cc1ccco1 |  | > 100 |  | > 100 | > 100 | > 100 | > 100 | > 100 µM |  | > 100 | > 100 µM | > 100 | 
3 | CN(C(=O)C12C3C4C1C1C2C3C41C(O)C(C)(C)C)C(C)(C)C (configuration not stated) |  | > 100 | > 100 µM | > 100 | > 100 | > 100 | > 100 | > 100 µM |  | > 100 | > 100 µM | > 100 | 
4 | C[N+](C)(C)CC(CC(=O)[O-])C1CC1 (configuration not stated) |  | > 100 | > 100 µM | > 100 | > 100 | > 100 | > 100 | > 100 µM |  | > 100 | > 100 µM | > 100 | 
5 | O=c1ccn(C2(CO)C=C(CO)C(O)C2O)c(=O)[nH]1 (configuration not stated) |  | > 25.7 |  | > 25.7 | > 25.7 | > 25.7 | > 25.7 | > 25.7 µM |  | > 25.7 | > 25.7 µM | > 25.7 | 
6 | CCCC(=O)c1ccc(=O)n(C)c1 |  | > 100 | > 100 µM | > 100 | > 100 | > 100 | > 100 | > 100 µM |  | > 100 | > 100 µM | > 100 | 
7 | CCCCCCCCCCCCCCCC(=O)OCC1OC(OC)C(NC(=O)N(CCCl)N=O)C(O)C1O (configuration not stated) | 99.4 | 57.2 | 32 µM | 58.4 | 59.9 | 46.4 | 37.4 | 23.1 µM | 51.7 | 53.4 | 63.2 µM | > 89.6 | 
8 | COc1ccc(OC(C)C(=O)O)c2c1CCCC2=O (configuration not stated) |  | > 100 | > 100 µM | > 100 | > 100 | > 100 | > 100 | > 100 µM |  | > 100 | > 100 µM | > 100 | 
9 | CC(C)CN1CC(C)C(=O)NC1=O (configuration not stated) |  | > 100 | > 100 µM | > 100 | > 100 | > 100 | > 100 | > 100 µM |  | > 100 | > 100 µM | > 100 | 
10 | O=C1/C(=C/c2ccc(Cl)c(Cl)c2)CNC/C1=C\c1ccc(Cl)c(Cl)c1 | 87.2 | 35.6 | 26.9 µM | 24.2 | > 70.4 | > 32.7 | 12.2 | 29.1 µM | 47.7 | 6.3 | 80 µM | > 58.1 | 
11 | COc1ccc(N=Nc2c(-c3ccccc3)nn(C(=O)CC(=O)Nc3ccccc3Cl)c2-c2ccccc2)cc1 |  | > 100 | > 100 µM | > 100 | > 100 | > 100 | > 100 | > 100 µM |  | > 100 | > 100 µM | > 100 | 
12 | NC(CCc1ncc(-c2ccccc2)s1)C(=O)O (configuration not stated) |  | > 100 | > 100 µM |  | > 100 | > 100 | > 100 | > 100 µM |  |  | > 100 µM |  | 
13 | COC1C(CO)OC(n2c3c(Cl)cccc3c3c4c(c5c6cccc(Cl)c6[nH]c5c32)C(=O)NC4=O)C(O)C1O (configuration not stated) | 12.4 | 1.47 | 2.72 µM | > 100 | 0.321 | > 100 | > 100 | 0.479 µM | > 100 | 18.3 | 19.7 µM | 0.898 | 
14 | CCOc1ccc(NCC2CC/C(=C\c3ccc(Cl)cc3)C2=O)cc1 (configuration not stated) |  | > 60.3 | > 73.4 µM | > 55.8 | > 59.2 | > 58.9 | 25.8 | > 100 µM |  | > 75.3 | > 65.6 µM | > 58.6 | 
15 | Cc1ccc(/C=C/C(=O)c2ccc([N+](=O)[O-])cc2)cc1 |  | > 100 | 99.8 µM | > 100 | > 100 |  | > 100 | > 100 µM |  | > 100 | > 100 µM | > 100 | 
16 | Cc1cccc(C(C)C)c1NC(=O)CCl |  | > 100 | 80 µM | > 100 | > 100 | 50 | > 100 | > 100 µM |  | 76.6 |  | > 100 | 
17 | C=C1CCC2C(C)(CO)C(O)CCC2(C)C1C/C=C1/CCOC1=O (configuration not stated) |  | > 100 | > 100 µM | > 100 | > 100 |  | > 100 | > 100 µM |  | > 100 | > 100 µM | > 100 | 
18 | O=C1CCNC(=O)NC1 |  | > 100 |  | > 100 | > 100 | > 100 | > 100 | > 100 µM |  | > 100 | > 100 µM | > 100 | 
19 | O=C1c2cccc3c(Cl)ccc(c23)C(=O)N1CCCN1CCN(CCCN2C(=O)c3cccc4c(Cl)ccc(c34)C2=O)CC1 |  | > 100 | > 100 µM | > 100 | > 100 | > 100 | > 100 | > 100 µM |  | > 100 | > 100 µM |  | 
20 | CCC(C)c1cccc(C)c1NC(=O)C(=O)Cc1nc2ccccc2s1 (configuration not stated) |  | > 100 | > 100 µM | > 100 | > 100 | > 100 | > 100 | > 100 µM |  | > 100 | > 100 µM | > 100 | 
21 | CC#CC#C/C=C1\C=CC2(OC=CC2OC(C)=O)O1 (configuration not stated) | > 100 | 33.9 | 42.9 µM and 16.5 µM | 10.2 | 36.8 | 45.6 | 32.2 | 65 µM and > 100 µM | > 100 | > 100 | > 100 µM and 59.7 µM |  | 29.1
22 | c1ccc2c(c1)Sc1ccccc1N2C1CN2CCC1CC2 (configuration not stated) |  | 36.1 | 74.5 µM | 30.2 | 29.9 | 35.3 | 30.6 | 33.4 µM |  | 35.2 | 27.7 µM | 29.7 | 
23 | O=C(/C=C/c1ccccc1O)c1cccc2ccccc12 |  | > 100 | > 100 µM | > 100 | > 100 | > 92.2 | > 100 | > 100 µM |  | > 100 | > 100 µM | > 100 | 
24 | CN1C(=O)CCC1c1ccc2c(c1)oc(=O)n2C (configuration not stated) |  | > 100 | > 100 µM | > 100 |  | > 100 | > 100 | > 100 µM |  | > 100 | > 100 µM | > 100 | 
25 | CCOC(=O)C(=O)Nc1ccccc1OCC |  | > 100 | > 100 µM |  | > 100 | > 100 | > 100 | > 100 µM |  | > 100 | > 100 µM | > 100 | 

From PubChem BioAssay (NCI)
